Results reported in ChEMBL document CHEMBL5055643, “Sophoraflavanone G Resensitizes ABCG2-Overexpressing Multidrug-Resistant Non-Small-Cell Lung Cancer Cells to Chemotherapeutic Drugs” (J Nat Prod, 2021).

Legend:
NCI/ADR-RES [1] = experiment: Chemo-sensitizing activity against ABCB1-overexpressing human NCI/ADR-RES cells assessed as reversal fold at 5 uM measured after 72 hrs in presence of paclitaxel by CCK8 assay relative to control; type: functional
KB 3-1 [2] = experiment: Chemo-sensitizing activity against human KB 3-1 cells assessed as reversal fold at 1 uM measured after 72 hrs in presence of vincristine by CCK8 assay relative to control; type: functional
NCI-H460 [3] = experiment: Chemo-sensitizing activity against human NCI-H460 cells assessed as reversal fold at 2 uM measured after 72 hrs in presence of SN-38 by CCK8 assay relative to control; type: functional
HEK293 [4] = experiment: Chemo-sensitizing activity against ABCG2-overexpressing human HEK293 cells assessed as reversal fold at 1 uM measured after 72 hrs in presence of topotecan by CCK8 assay relative to control; type: functional
A549 [5] = experiment: Cytotoxicity against human A549 cells assessed as reduction in cell viability measured after 72 hrs by CCK8 assay; type: cell-based; conditions: A549, 72 h
OVCAR-8 [6] = experiment: Chemo-sensitizing activity against human OVCAR-8 cells assessed as reversal fold at 1 uM measured after 72 hrs in presence of colchicine by CCK8 assay relative to control; type: functional
A549 [7] = experiment: Chemo-sensitizing activity against becatecarin-selected ABCG2-overexpressing human A549/Bec150 cells assessed as reversal fold at 1 uM measured after 72 hrs in presence of mitoxantrone by CCK8 assay relative to control; type: functional
HEK293 [8] = experiment: Chemo-sensitizing activity against ABCG2-overexpressing human HEK293/482R cells assessed as reversal fold at 2 uM measured after 72 hrs in presence of mitoxatrone by CCK8 assay relative to control; type: functional
HEK293 [9] = experiment: Chemo-sensitizing activity against human HEK293 cells assessed as reversal fold at 1 uM measured after 72 hrs in presence of colchicine by CCK8 assay relative to control; type: functional
OVCAR-8 [10] = experiment: Chemo-sensitizing activity against human OVCAR-8 cells assessed as reversal fold at 2 uM measured after 72 hrs in presence of vincristine by CCK8 assay relative to control; type: functional
A549 [11] = experiment: Chemo-sensitizing activity against becatecarin-selected ABCG2-overexpressing human A549/Bec150 cells assessed as reversal fold at 2 uM measured after 72 hrs in presence of SN-38 by CCK8 assay relative to control; type: functional
KB 3-1 [12] = experiment: Chemo-sensitizing activity against human KB 3-1 cells assessed as reversal fold at 2 uM measured after 72 hrs in presence of paclitaxel by CCK8 assay relative to control; type: functional
NCI/ADR-RES [13] = experiment: Chemo-sensitizing activity against ABCB1-overexpressing human NCI/ADR-RES cells assessed as reversal fold at 1 uM measured after 72 hrs in presence of vincristine by CCK8 assay relative to control; type: functional
NCI/ADR-RES [14] = experiment: Chemo-sensitizing activity against ABCB1-overexpressing human NCI/ADR-RES cells assessed as reversal fold at 2 uM measured after 72 hrs in presence of colchicine by CCK8 assay relative to control; type: functional
HEK293 [15] = experiment: Chemo-sensitizing activity against ABCB1-overexpressing human HEK293/MDR19 cells assessed as reversal fold at 2 uM measured after 72 hrs in presence of colchicine by CCK8 assay relative to control; type: functional
A549 [16] = experiment: Chemo-sensitizing activity against becatecarin-selected ABCG2-overexpressing human A549/Bec150 cells assessed as reversal fold at 5 uM measured after 72 hrs in presence of SN-38 by CCK8 assay relative to control; type: functional
NCI-H460 [17] = experiment: Chemo-sensitizing activity against mitoxantrone-selected ABCG2-overexpressing human NCI-H460/MX20 cells assessed as reversal fold at 5 uM measured after 72 hrs in presence of mitoxantrone by CCK8 assay relative to control; type: functional
ABCG2 = experiment: Resistance factor, ratio of IC50 for becatecarin-selected ABCG2-overexpressing human A549/Bec150 cells to IC50 for human A549 cells; type: ADME; conditions: read-out: Ratio IC50
NCI-H460 [18] = experiment: Cytotoxicity against human NCI-H460 cells assessed as reduction in cell viability measured after 72 hrs by CCK8 assay; type: cell-based; conditions: NCI-H460, 72 h
OVCAR-8 [19] = experiment: Chemo-sensitizing activity against human OVCAR-8 cells assessed as reversal fold at 1 uM measured after 72 hrs in presence of vincristine by CCK8 assay relative to control; type: functional
KB-V1 [20] = experiment: Chemo-sensitizing activity against ABCB1-overexpressing human KB-V1 cells assessed as reversal fold at 1 uM measured after 72 hrs in presence of vincristine by CCK8 assay relative to control; type: functional
HEK293 [21] = experiment: Chemo-sensitizing activity against human HEK293 cells assessed as reversal fold at 1 uM measured after 72 hrs in presence of topotecan by CCK8 assay relative to control; type: functional
A549 [22] = experiment: Chemo-sensitizing activity against human A549 cells assessed as reversal fold at 5 uM measured after 72 hrs in presence of mitoxantrone by CCK8 assay relative to control; type: functional
KB-V1 [23] = experiment: Chemo-sensitizing activity against ABCB1-overexpressing human KB-V1 cells assessed as reversal fold at 1 uM measured after 72 hrs in presence of paclitaxel by CCK8 assay relative to control; type: functional
HEK293 [24] = experiment: Chemo-sensitizing activity against ABCB1-overexpressing human HEK293/MDR19 cells assessed as reversal fold at 1 uM measured after 72 hrs in presence of vincristine by CCK8 assay relative to control; type: functional
[25] = molecular target: T1, Broad substrate specificity ATP-binding cassette transporter ABCG2 (Homo sapiens, UniProt Q9UNQ0); experiment: Inhibition of ABCG2 in becatecarin-selected ABCG2-overexpressing human A549/Bec150 cells assessed as increase in intracellular mitoxantrone accumulation incubated for 1 hr in presence of mitoxantrone by flow cytometry; type: cell-based
T1 sequence (Q9UNQ0 whole entry): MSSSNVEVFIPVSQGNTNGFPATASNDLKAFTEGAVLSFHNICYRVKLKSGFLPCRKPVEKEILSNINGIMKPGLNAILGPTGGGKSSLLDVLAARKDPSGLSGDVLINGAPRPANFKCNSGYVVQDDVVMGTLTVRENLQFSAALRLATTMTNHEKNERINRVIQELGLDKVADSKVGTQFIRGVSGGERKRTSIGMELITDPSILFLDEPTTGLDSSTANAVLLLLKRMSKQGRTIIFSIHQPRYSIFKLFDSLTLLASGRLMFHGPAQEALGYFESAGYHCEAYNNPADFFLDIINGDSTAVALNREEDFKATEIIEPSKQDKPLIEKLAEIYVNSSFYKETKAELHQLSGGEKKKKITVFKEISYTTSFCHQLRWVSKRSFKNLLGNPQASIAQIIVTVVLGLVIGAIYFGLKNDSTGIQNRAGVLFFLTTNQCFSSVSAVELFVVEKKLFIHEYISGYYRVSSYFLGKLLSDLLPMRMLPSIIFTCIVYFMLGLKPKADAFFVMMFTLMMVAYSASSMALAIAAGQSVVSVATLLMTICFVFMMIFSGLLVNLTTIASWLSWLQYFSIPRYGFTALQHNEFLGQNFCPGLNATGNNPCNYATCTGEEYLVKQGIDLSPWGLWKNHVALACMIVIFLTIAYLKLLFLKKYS

NCI/ADR-RES [26] = experiment: Chemo-sensitizing activity against ABCB1-overexpressing human NCI/ADR-RES cells assessed as reversal fold at 1 uM measured after 72 hrs in presence of colchicine by CCK8 assay relative to control; type: functional

C=C(C)[C@H](CC=C(C)C)Cc1c(O)cc(O)c2c1O[C@H](c1ccc(O)cc1O)CC2=O [SOPHORAFLAVANONE G]
fold change (FC) (NCI/ADR-RES [1]): 1.4
fold change (FC) (KB 3-1 [2]): 1.1
fold change (FC) (NCI-H460 [3]): 1.7
fold change (FC) (HEK293 [4]): 1.7
IC50 (A549 [5]): 26.2 µM
fold change (FC) (OVCAR-8 [6]): 1
fold change (FC) (A549 [7]): 2.7
fold change (FC) (HEK293 [8]): 3.2
fold change (FC) (HEK293 [9]): 1
fold change (FC) (OVCAR-8 [10]): 1
fold change (FC) (A549 [11]): 2.7
fold change (FC) (KB 3-1 [12]): 1.1
fold change (FC) (NCI/ADR-RES [13]): 1
fold change (FC) (NCI/ADR-RES [14]): 0.8
fold change (FC) (HEK293 [15]): 0.8
fold change (FC) (A549 [16]): 7.7
fold change (FC) (NCI-H460 [17]): 7.6
selectivity ratio (ABCG2): 0.8
IC50 (NCI-H460 [18]): 29.3 µM
fold change (FC) (OVCAR-8 [19]): 1
fold change (FC) (KB-V1 [20]): 1
fold change (FC) (HEK293 [21]): 0.9
fold change (FC) (A549 [22]): 1.8
fold change (FC) (KB-V1 [23]): 0.9
fold change (FC) (HEK293 [24]): 0.7
IC50 [25]: 2.29 µM
inhibition (INH) ([25]; human, a549, 1 h, time 1 hrs): Dose-dependent effect
fold change (FC) (NCI/ADR-RES [26]): 0.9
